Reference: patent publication US9326516B2, “Molecules having certain pesticidal utilities, and intermediates, compositions, and processes related thereto” (Dow AgroSciences LLC, priority 2014, dated 2016)

What was measured:
Type in all cases: in vivo
[1] = tested on: Beet Armyworm (Spodoptera exigua, LAPHEG); test: Bioassay on Beet Armyworm (BAW), 128-well diet tray assay; conditions: 168 h, 50 μg/cm^2 on artificial diet, second instar BAW larvae, 25° C., five to seven days, average of eight wells, read-out: BAW % Control (or Mortality) rating
Procedure: (§1) Certain molecules disclosed in this document were tested against BAW and CEW using procedures described in the following examples. In the reporting of the results, the “BAW & CL Rating Table” was used (See Table Section).
Bioassays on BAW were conducted using a 128-well diet tray assay. one to five second instar BAW larvae were placed in each well (3 mL) of the diet tray that had been previously filled with 1 mL of artificial diet to which 50 μg/cm^2 of the test compound (dissolved in 50 μL of 90:10 acetone-water mixture) had been applied (to each of eight wells) and then allowed to dry. Trays were covered with a clear self-adhesive cover and held at 25° C., 14:10 light-dark for five to seven days. Percent mortality was recorded for the larvae in each well; activity in the eight wells was then averaged. The results are indicated in the table entitled “Table ABC: Biological Results” (See Table Section).

[2] = tested on: Cabbage Looper (Trichoplusia ni, TRIPNI); test: Bioassay on Cabbage Looper (CL), 128-well diet tray assay; conditions: 168 h, 50 μg/cm^2 on artificial diet, second instar CL larvae, 25° C., five to seven days, average of eight wells, read-out: CL % Control (or Mortality) rating
Procedure: as §1
Bioassays on CL were conducted using a 128-well diet tray assay, one to five second instar CL larvae were placed in each well (3 mL) of the diet tray that had been previously filled with 1 mL of artificial diet to which 50 μg/cm^2 of the test compound (dissolved in 50 μL of 90:10 acetone-water mixture) had been applied (to each of eight wells) and then allowed to dry. Trays were covered with a clear self-adhesive cover and held at 25° C., 14:10 light-dark for five to seven days. Percent mortality was recorded for the larvae in each well; activity in the eight wells was then averaged. The results are indicated in the table entitled “Table ABC: Biological Results” (See Table Section).

[3] = tested on: Green Peach Aphid (Myzus persicae, MYZUPE); test: Bioassay on Green Peach Aphid (GPA), foliar spray on cabbage seedlings; conditions: 72 h, 200 ppm spray on infested cabbage seedlings, graded after three days, Abbott corrected % control, read-out: GPA % Control (or Mortality) rating
Procedure: Certain molecules disclosed in this document were tested against GPA using procedures described in the following example. In the reporting of the results, the “GPA Rating Table” was used (See Table Section).
Cabbage seedlings grown in 3-inch pots, with 2-3 small (3-5 cm) true leaves, were used as test substrate. The seedlings were infested with 20-50 GPA (wingless adult and nymph stages) one day prior to chemical application. Four pots with individual seedlings were used for each treatment. Test compounds (2 mg) were dissolved in 2 mL of acetone/methanol (1:1) solvent, forming stock solutions of 1000 ppm test compound. The stock solutions were diluted 5× with 0.025% Tween 20 in water to obtain the solution at 200 ppm test compound. A hand-held aspirator-type sprayer was used for spraying a solution to both sides of […] leaves until runoff. Reference plants (solvent check) were sprayed with the diluent only containing 20% by volume of acetone/methanol (1:1) solvent. Treated plants were held in a holding room for three days at approximately 25° C. and ambient relative humidity (RH) prior to grading. Evaluation was conducted by counting the number of live aphids per plant under a microscope. Percent Control was measured by using Abbott's correction formula (W. S. Abbott, “A Method of Computing the Effectiveness of an Insecticide” J. Econ. Entomol. 18 (1925), pp. 265-267) as follows. Corrected % Control=100*(X−Y)/X where X=No. of live aphids on solvent check plants and Y=No. of live aphids on treated plants

Structure (SMILES) | mortality at 50 µg/cm2 [1] [%] | mortality at 50 µg/cm2 [2] [%] | mortality at 200 ppm [3] [%]
FC(F)(F)Oc1ccc(-n2cnc(-c3ccc(NC4=NC(c5ccc(Br)cc5)CS4)cc3)n2)cc1 (stereo not drawn) [Compound F26, 4-(4-Bromophenyl)-N-(4-(1-(4-(trifluoromethoxy)phenyl)-1H-1,2,4-triazol-3-yl)phenyl)-4,5-dihydrothiazol-2-amine] | 0 | 0 to 50 | 0
Fc1ccc(C2CSC(Nc3ccc(-c4ncn(-c5ccc(OC(F)(F)F)cc5)n4)cc3)=N2)cc1 (stereo not drawn) [Compound F24, 4-(4-Fluorophenyl)-N-(4-(1-(4-(trifluoromethoxy)phenyl)-1H-1,2,4-triazol-3-yl)phenyl)-4,5-dihydrothiazol-2-amine] | 0 to 50 | 0 to 50 | 0
FC(F)(F)Oc1ccc(C2COC(Nc3ccc(-c4ncn(-c5ccc(C(F)(F)F)cc5)n4)cc3)=N2)cc1 (stereo not drawn) [Compound F17, 4-(4-(Trifluoromethoxy)phenyl)-N-(4-(1-(4-(trifluoromethyl)phenyl)-1H-1,2,4-triazol-3-yl)phenyl)-4,5-dihydrooxazol-2-amine] | 50 to 100 | 50 to 100 | 0
FC(F)(F)c1ccc(-n2cnc(-c3ccc(NC4=NC(c5ccc(Cl)cc5)CO4)cc3)n2)cc1 (stereo not drawn) [Compound F16, 4-(4-Chlorophenyl)-N-(4-(1-(4-(trifluoromethyl)phenyl)-1H-1,2,4-triazol-3-yl)phenyl)-4,5-dihydrooxazol-2-amine] | 50 to 100 | 50 to 100 | 80 to 100
COc1ccc(C2COC(Nc3ccc(-c4ncn(-c5ccc(OC(F)(F)F)cc5)n4)cc3)=N2)cc1 (stereo not drawn) [Compound F6, 4-(4-Methoxyphenyl)-N-(4-(1-(4-(trifluoromethoxy)phenyl)-1H-1,2,4-triazol-3-yl)phenyl)-4,5-dihydrooxazol-2-amine] | 50 to 100 | 50 to 100 | 0
Cc1ccc(C2CSC(Nc3ccc(-c4ncn(-c5ccc(C(F)(F)F)cc5)n4)cc3)=N2)cc1 (stereo not drawn) [Compound F33, 4-(p-Tolyl)-N-(4-(1-(4-(trifluoromethyl)phenyl)-1H-1,2,4-triazol-3-yl)phenyl)-4,5-dihydrothiazol-2-amine] | 0 | 0 | 0 to 80
COc1ccc(C2CSC(Nc3ccc(-c4ncn(-c5ccc(OC(F)(F)F)cc5)n4)cc3)=N2)cc1 (stereo not drawn) [Compound F21, 4-(4-Methoxyphenyl)-N-(4-(1-(4-(trifluoromethoxy)phenyl)-1H-1,2,4-triazol-3-yl)phenyl)-4,5-dihydrothiazol-2-amine] | 50 to 100 | 0 | 0
Fc1ccc(C2COC(Nc3ccc(-c4ncn(-c5ccc(OC(F)(F)F)cc5)n4)cc3)=N2)cc1 (stereo not drawn) [Compound F8, 4-(4-Fluorophenyl)-N-(4-(1-(4-(trifluoromethoxy)phenyl)-1H-1,2,4-triazol-3-yl)phenyl)-4,5-dihydrooxazol-2-amine] | 50 to 100 | 50 to 100 | 0 to 80
Cc1ccc(C2CSC(Nc3ccc(-c4ncn(-c5ccc(OC(F)(F)F)cc5)n4)cc3)=N2)cc1 (stereo not drawn) [Compound F22, 4-(p-Tolyl)-N-(4-(1-(4-(trifluoromethoxy)phenyl)-1H-1,2,4-triazol-3-yl)phenyl)-4,5-dihydrothiazol-2-amine] | 0 | 0 | 0
Fc1ccc(C2COC(Nc3ccc(-c4ncn(-c5ccc(C(F)(F)F)cc5)n4)cc3)=N2)cc1 (stereo not drawn) [Compound F15, 4-(4-Fluorophenyl)-N-(4-(1-(4-(trifluoromethyl)phenyl)-1H-1,2,4-triazol-3-yl)phenyl)-4,5-dihydrooxazol-2-amine] | 50 to 100 | 50 to 100 | 0
FC(F)(F)Oc1ccc(-n2cnc(-c3ccc(NC4=NC(c5ccccc5)CS4)cc3)n2)cc1 (stereo not drawn) [Compound F23, 4-Phenyl-N-(4-(1-(4-(trifluoromethoxy)phenyl)-1H-1,2,4-triazol-3-yl)phenyl)-4,5-dihydrothiazol-2-amine] | 0 | 0 | 0
Cc1cc(C2CSC(Nc3ccc(-c4ncn(-c5ccc(OC(F)(F)F)cc5)n4)cc3)=N2)ccc1Cl (stereo not drawn) [Compound F31, 4-(4-Chloro-3-methylphenyl)-N-(4-(1-(4-(trifluoromethoxy)phenyl)-1H-1,2,4-triazol-3-yl)phenyl)-4,5-dihydrothiazol-2-amine] | 50 to 100 | 50 to 100 | 0
FC(F)(F)Oc1ccc(-n2cnc(-c3ccc(NC4=NC(c5ccc(Cl)cc5)CO4)cc3)n2)cc1 (stereo not drawn) [Compound F3, 4-(4-Chlorophenyl)-N-(4-(1-(4-(trifluoromethoxy)phenyl)-1H-1,2,4-triazol-3-yl)phenyl)-4,5-dihydrooxazol-2-amine] | 50 to 100 | 50 to 100 | 0 to 80
FC(F)(F)c1ccc(-n2cnc(-c3ccc(NC4=NC(c5ccccc5Cl)CS4)cc3)n2)cc1 (stereo not drawn) [Compound F41, 4-(2-Chlorophenyl)-N-(4-(1-(4-(trifluoromethyl)phenyl)-1H-1,2,4-triazol-3-yl)phenyl)-4,5-dihydrothiazol-2-amine] | 50 to 100 | 50 to 100 | 0
FC(F)(F)Oc1ccc(-n2cnc(-c3ccc(NC4=NC(c5ccccc5)CO4)cc3)n2)cc1 (stereo not drawn) [Compound F7, 4-Phenyl-N-(4-(1-(4-(trifluoromethoxy)phenyl)-1H-1,2,4-triazol-3-yl)phenyl)-4,5-dihydrooxazol-2-amine] | 50 to 100 | 50 to 100 | 80 to 100
FC(F)(F)c1ccc(-n2cnc(-c3ccc(NC4=NC(c5ccccc5)CS4)cc3)n2)cc1 (stereo not drawn) [Compound F34, 4-Phenyl-N-(4-(1-(4-(trifluoromethyl)phenyl)-1H-1,2,4-triazol-3-yl)phenyl)-4,5-dihydrothiazol-2-amine] | 50 to 100 | 50 to 100 | 0
Cc1ccc(C2COC(Nc3ccc(-c4ncn(-c5ccc(C(F)(F)F)cc5)n4)cc3)=N2)cc1 (stereo not drawn) [Compound F13, 4-(p-Tolyl)-N-(4-(1-(4-(trifluoromethyl)phenyl)-1H-1,2,4-triazol-3-yl)phenyl)-4,5-dihydrooxazol-2-amine] | 0 | 0 | 0
Cc1cc(C2CSC(Nc3ccc(-c4ncn(-c5ccc(C(F)(F)F)cc5)n4)cc3)=N2)ccc1Cl (stereo not drawn) [Compound F42, 4-(4-Chloro-3-methylphenyl)-N-(4-(1-(4-(trifluoromethyl)phenyl)-1H-1,2,4-triazol-3-yl)phenyl)-4,5-dihydrothiazol-2-amine] | 0 | 0 | 0
